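These data come from cells grown in 96-well plates and exposed to compound for 48 hours at five concentrations. TGI: total growth inhibition.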
What was measured:
Assay in all cases: inhibition of tumour cell growth, NCI panel, 48 h
[1] = tested on: KM20L2 colon
[2] = tested on: SNB-75 CNS
[3] = tested on: MALME-3M melanoma
[4] = tested on: HT29 colon
[5] = tested on: LOX IMVI melanoma
[6] = tested on: HL-60(TB) leukemia
[7] = tested on: CAKI-1 renal
[8] = tested on: ACHN renal
[9] = tested on: UO-31 renal
[10] = tested on: NCI-H23 lung
[11] = tested on: SF-539 CNS
[12] = tested on: SK-MEL-2 melanoma
[13] = tested on: SNB-78 CNS
[14] = tested on: A498 renal
[15] = tested on: SK-MEL-5 melanoma
[16] = tested on: HOP-62 NSCLC
[17] = tested on: XF 498 CNS
[18] = tested on: SF-295 CNS
[19] = tested on: RXF-631 renal
[20] = tested on: OVCAR-4 ovarian
[21] = tested on: CCRF-CEM leukemia
[22] = tested on: HCT-116 colon
[23] = tested on: U251 CNS
[24] = tested on: SK-OV-3 ovarian
[25] = tested on: OVCAR-3 ovarian
[26] = tested on: SF-268 CNS
[27] = tested on: NCI-H226 lung
[28] = tested on: RXF 393 renal
[29] = tested on: A549 NSCLC
[30] = tested on: UACC-257 melanoma
[31] = tested on: IGROV1 ovarian
[32] = tested on: HOP-92 NSCLC
[33] = tested on: OVCAR-8 ovarian
[34] = tested on: TK-10 renal
[35] = tested on: HCC-2998 colon
[36] = tested on: DMS 114 small cell lung
[37] = tested on: LXFL 529 NSCLC
[38] = tested on: K-562 leukemia
[39] = tested on: SR leukemia
[40] = tested on: EKVX NSCLC
[41] = tested on: OVCAR-5 ovarian
[42] = tested on: SW-620 colon
[43] = tested on: M19-MEL melanoma
[44] = tested on: HOP-18 NSCLC
[45] = tested on: COLO 205 colon
[46] = tested on: SK-MEL-28 melanoma
[47] = tested on: RPMI-8226 leukemia
[48] = tested on: NCI-H460 lung
[49] = tested on: HCT-15 colon
[50] = tested on: SN12C renal
[51] = tested on: DLD-1 colon
[52] = tested on: 786-0 renal
[53] = tested on: M14 melanoma
[54] = tested on: MOLT-4 leukemia
[55] = tested on: UACC-62 melanoma
[56] = tested on: KM12 colon
[57] = tested on: DMS 273 small cell lung
[58] = tested on: NCI-H522 lung
[59] = tested on: SNB-19 CNS

SMILES: O=C1OCC2C1C1c3ccccc3C(O)c3ccccc3C21 (stereo unspecified)
- TGI [1]: > 100 µM
- TGI [2]: > 100 µM
- TGI [3]: > 100 µM
- TGI [4]: > 100 µM
- TGI [5]: > 100 µM
- TGI [6]: > 100 µM
- TGI [7]: > 100 µM
- TGI [8]: > 100 µM
- TGI [9]: > 100 µM
- TGI [10]: > 100 µM
- TGI [11]: > 100 µM
- TGI [12]: > 100 µM
- TGI [13]: > 100 µM
- TGI [14]: > 100 µM
- TGI [15]: > 100 µM
- TGI [16]: > 100 µM
- TGI [17]: > 100 µM
- TGI [18]: > 100 µM
- TGI [19]: > 100 µM
- TGI [20]: > 100 µM
- TGI [21]: > 100 µM
- TGI [22]: > 100 µM
- TGI [23]: > 100 µM
- TGI [24]: > 100 µM
- TGI [25]: > 100 µM
- TGI [26]: > 100 µM
- TGI [27]: > 100 µM
- TGI [28]: > 100 µM
- TGI [29]: > 100 µM
- TGI [30]: > 100 µM
- TGI [31]: > 100 µM
- TGI [32]: > 100 µM
- TGI [33]: > 100 µM
- TGI [34]: > 100 µM
- TGI [35]: > 100 µM
- TGI [36]: > 100 µM
- TGI [37]: > 100 µM
- TGI [38]: > 100 µM
- TGI [39]: > 100 µM
- TGI [40]: > 100 µM
- TGI [41]: > 100 µM
- TGI [42]: > 100 µM
- TGI [43]: > 100 µM
- TGI [44]: > 100 µM
- TGI [45]: > 100 µM
- TGI [46]: > 100 µM
- TGI [47]: > 100 µM
- TGI [48]: > 100 µM
- TGI [49]: > 100 µM
- TGI [50]: > 100 µM
- TGI [51]: > 100 µM
- TGI [52]: > 100 µM
- TGI [53]: > 100 µM
- TGI [54]: > 100 µM
- TGI [55]: > 100 µM
- TGI [56]: > 100 µM

SMILES: CNS(=O)(=O)NNS(=O)(=O)c1ccc(Br)cc1
- TGI [1]: > 100 µM
- TGI [2]: > 100 µM
- TGI [3]: > 100 µM
- TGI [4]: > 100 µM
- TGI [5]: > 100 µM
- TGI [6]: > 100 µM
- TGI [7]: > 100 µM
- TGI [8]: > 100 µM
- TGI [9]: > 100 µM
- TGI [10]: > 100 µM
- TGI [57]: > 100 µM
- TGI [11]: > 100 µM
- TGI [12]: > 100 µM
- TGI [13]: > 100 µM
- TGI [14]: > 100 µM
- TGI [58]: > 100 µM
- TGI [15]: > 100 µM
- TGI [16]: > 100 µM
- TGI [17]: > 100 µM
- TGI [19]: > 100 µM
- TGI [20]: > 100 µM
- TGI [21]: > 100 µM
- TGI [22]: > 100 µM
- TGI [23]: > 100 µM
- TGI [24]: > 100 µM
- TGI [26]: > 100 µM
- TGI [27]: > 100 µM
- TGI [28]: > 100 µM
- TGI [29]: > 100 µM
- TGI [30]: > 100 µM
- TGI [31]: > 100 µM
- TGI [32]: > 100 µM
- TGI [33]: > 100 µM
- TGI [34]: > 100 µM
- TGI [35]: > 100 µM
- TGI [36]: > 100 µM
- TGI [37]: > 100 µM
- TGI [38]: > 100 µM
- TGI [40]: > 100 µM
- TGI [41]: > 100 µM
- TGI [42]: > 100 µM
- TGI [43]: > 100 µM
- TGI [44]: > 100 µM
- TGI [59]: > 100 µM
- TGI [45]: > 100 µM
- TGI [46]: > 100 µM
- TGI [47]: > 100 µM
- TGI [48]: > 100 µM
- TGI [49]: > 100 µM
- TGI [51]: > 100 µM
- TGI [52]: > 100 µM
- TGI [53]: > 100 µM
- TGI [55]: > 100 µM

SMILES: COC1(OC)CC2C(=O)N(Cc3ccccc3)C1C=C2S(=O)(=O)c1ccccc1 (stereo unspecified)
- TGI [1]: 33.1 µM
- TGI [2]: 93.9 µM
- TGI [3]: 39.6 µM
- TGI [4]: 33.8 µM
- TGI [5]: 28.2 µM
- TGI [6]: 36.7 µM
- TGI [8]: 44.4 µM
- TGI [9]: 65.1 µM
- TGI [10]: 38.1 µM
- TGI [11]: 32.7 µM
- TGI [13]: 74.4 µM
- TGI [14]: 45 µM
- TGI [58]: 27.7 µM
- TGI [15]: 26.7 µM
- TGI [16]: > 100 µM
- TGI [17]: 31.7 µM
- TGI [18]: > 100 µM
- TGI [20]: 53.5 µM
- TGI [21]: 44.9 µM
- TGI [22]: 26.7 µM
- TGI [23]: 29 µM
- TGI [24]: > 100 µM
- TGI [25]: 28 µM
- TGI [26]: > 100 µM
- TGI [27]: 47.3 µM
- TGI [28]: 29 µM
- TGI [29]: 64.2 µM
- TGI [30]: 34.5 µM
- TGI [31]: > 100 µM
- TGI [32]: 54.1 µM
- TGI [33]: 40.5 µM
- TGI [34]: 49.1 µM
- TGI [35]: 33.6 µM
- TGI [36]: 31.9 µM
- TGI [37]: 34.2 µM
- TGI [38]: 63.2 µM
- TGI [39]: 46.3 µM
- TGI [40]: 33.1 µM
- TGI [42]: 28.5 µM
- TGI [43]: 30.4 µM
- TGI [44]: 31.9 µM
- TGI [59]: 54.7 µM
- TGI [45]: 22 µM
- TGI [46]: 31.9 µM
- TGI [47]: 63.1 µM
- TGI [48]: 38.6 µM
- TGI [50]: 30.1 µM
- TGI [51]: 27.6 µM
- TGI [52]: 38.2 µM
- TGI [53]: 35 µM
- TGI [54]: 50.3 µM
- TGI [55]: 31.3 µM
- TGI [56]: 31.6 µM

SMILES: Cc1ccc(NC(=O)CSc2nnc(-c3ccc(N=Cc4ccc(Cl)cc4)cc3)o2)cc1
- TGI [1]: > 100 µM
- TGI [2]: > 100 µM
- TGI [3]: > 100 µM
- TGI [4]: > 100 µM
- TGI [5]: > 100 µM
- TGI [6]: > 100 µM
- TGI [8]: > 100 µM
- TGI [9]: > 100 µM
- TGI [10]: > 100 µM
- TGI [57]: > 100 µM
- TGI [12]: > 100 µM
- TGI [13]: > 100 µM
- TGI [58]: > 100 µM
- TGI [15]: > 100 µM
- TGI [16]: > 100 µM
- TGI [17]: > 100 µM
- TGI [18]: > 100 µM
- TGI [20]: > 100 µM
- TGI [21]: > 100 µM
- TGI [22]: > 100 µM
- TGI [23]: > 100 µM
- TGI [24]: > 100 µM
- TGI [26]: > 100 µM
- TGI [27]: > 100 µM
- TGI [28]: > 100 µM
- TGI [29]: > 100 µM
- TGI [30]: > 100 µM
- TGI [33]: > 100 µM
- TGI [34]: > 100 µM
- TGI [36]: > 100 µM
- TGI [37]: > 100 µM
- TGI [38]: > 100 µM
- TGI [39]: > 100 µM
- TGI [40]: > 100 µM
- TGI [42]: > 100 µM
- TGI [43]: > 100 µM
- TGI [44]: > 100 µM
- TGI [59]: > 100 µM
- TGI [45]: > 100 µM
- TGI [46]: > 100 µM
- TGI [47]: > 100 µM
- TGI [48]: > 100 µM
- TGI [49]: > 100 µM
- TGI [50]: > 100 µM
- TGI [52]: > 100 µM
- TGI [53]: > 100 µM
- TGI [54]: > 100 µM
- TGI [55]: > 100 µM
- TGI [56]: > 100 µM
